From patent US9630977B2, “Cephalosporin derivatives and pharmaceutical compositions thereof” (Legochem Biosciences, Inc., priority 2011, dated 2017)
≈ marks a conversion by molar mass, not a printed value. Where two headings read alike, the source gives them in different places.

Tests used:
Experiment in all cases: In vitro antibacterial activity test (broth microdilution)
Assay type in all cases: cell-based
[1] = tested on: A. baumannii 46
Procedure, shortened: (§1)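 MIC90 (ug/mL) reported. CLSI microdilution in broth, clinical strains, 0.0626–128 ug/mL final compound, 2.5% v/v DMSO co-solvent.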

[2] = tested on: A. baumannii 49
Procedure, shortened: as §1

[3] = tested on: A. baumannii 52; conditions: Acinetobacter baumannii
Procedure, shortened: as §1

[4] = tested on: A. calcoaceticus ATCC15473; conditions: Acinetobacter calcoaceticus
Procedure, shortened: as §1

[5] = tested on: E. cloacae β19; conditions: Enterobacter cloacae
Procedure, shortened: as §1

[6] = tested on: E. coli AG100; conditions: Escherichia coli
Procedure, shortened: as §1

[7] = tested on: E. coli β4; conditions: Escherichia coli
Procedure, shortened: as §1

[8] = tested on: K. pneumoniae 2011E; conditions: Klebsiella pneumoniae, 2011E
Procedure, shortened: as §1

[9] = tested on: K. pneumoniae β10; conditions: Klebsiella pneumoniae
Procedure, shortened: as §1

[10] = tested on: K. pneumoniae β11; conditions: Klebsiella pneumoniae
Procedure, shortened: as §1

[11] = tested on: K. pneumoniae β13; conditions: Klebsiella pneumoniae
Procedure, shortened: as §1

[12] = tested on: K. pneumoniae β14; conditions: Klebsiella pneumoniae
Procedure, shortened: as §1

[13] = tested on: K. pneumoniae β9; conditions: Klebsiella pneumoniae
Procedure, shortened: as §1

[14] = tested on: M. catarrhalis 2524; conditions: Moraxella catarrhalis
Procedure, shortened: as §1

[15] = tested on: P. aeruginosa 1912E; conditions: Pseudomonas aeruginosa, 1912E
Procedure, shortened: as §1

[16] = tested on: P. aeruginosa 37; conditions: Pseudomonas aeruginosa, 37, P. aeruginosa 37
Procedure, shortened: as §1

[17] = tested on: P. aeruginosa 40
Procedure, shortened: as §1

[18] = tested on: P. aeruginosa 43; conditions: Pseudomonas aeruginosa
Procedure, shortened: as §1

[19] = tested on: P. aeruginosa 6065Y; conditions: Pseudomonas aeruginosa
Procedure, shortened: as §1

[20] = Acinetobacter baumannii, A. baumannii 46, read-out: MIC90
[21] = Acinetobacter baumannii, A. baumannii 49, read-out: MIC90
[22] = A. baumannii 52, read-out: MIC90
[23] = A. calcoaceticus ATCC15473, read-out: MIC90
[24] = AG100, E. coli AG100, read-out: MIC90
[25] = K. pneumoniae 2011E, read-out: MIC90
[26] = K. pneumoniae β10, read-out: MIC90
[27] = K. pneumoniae β11, read-out: MIC90
[28] = K. pneumoniae β13, read-out: MIC90
[29] = K. pneumoniae β9, read-out: MIC90
[30] = M. catarrhalis 2524, read-out: MIC90
[31] = Pseudomonas aeruginosa, 40, P. aeruginosa 40, read-out: MIC90
[32] = P. aeruginosa 43, read-out: MIC90
[33] = Acinetobacter baumannii, 46, A. baumannii 46
[34] = Acinetobacter baumannii, 49, A. baumannii 49
[35] = ATCC15473, A. calcoaceticus ATCC15473

Row | SMILES | MIC90 [1, 20] [µg/mL] | MIC90 [2, 21] [µg/mL] | MIC90 [3, 22] [µg/mL] | MIC90 [4, 23] [µg/mL] | MIC90 ([5]; read-out: MIC90) [µg/mL] | MIC90 [6, 24] [µg/mL] | MIC90 ([7]; read-out: MIC90) [µg/mL] | MIC90 [8, 25] [µg/mL] | MIC90 [9, 26] [µg/mL] | MIC90 [10, 27] [µg/mL] | MIC90 [11, 28] [µg/mL] | MIC90 ([12]; read-out: MIC90) [µg/mL] | MIC90 [13, 29] [µg/mL] | MIC90 [14, 30] [µg/mL] | MIC90 ([15]; read-out: MIC90) [µg/mL] | MIC90 ([16]; read-out: MIC90) [µg/mL] | MIC90 [17, 31] [µg/mL] | MIC90 [18, 32] [µg/mL] | MIC90 ([19]; read-out: MIC90) [µg/mL] | MIC90 [1, 33] [µg/mL] | further results
1 | CC(C)(O/N=C(\C(=O)N[C@@H]1C(=O)N2C(C(=O)[O-])=C(/C=C/C[n+]3cnc(N)c(NCCCCNC(=O)c4cc(=O)c(O)cn4O)c3)CSC12)c1csc(N)n1)C(=O)O (stereo partly drawn) [Compound 23] | 4 (≈ 4.83 µM) | > 128 | > 128 | 1 (≈ 1.21 µM) | 2 (≈ 2.42 µM) | < 0.0625 | < 0.0625 | 1 (≈ 1.21 µM) | < 0.0625 | 64 (≈ 77.3 µM) | < 0.0625 | 4 (≈ 4.83 µM) | < 0.0625 | 0.25 (≈ 0.302 µM) | 1 (≈ 1.21 µM) | 0.25 (≈ 0.302 µM) | 0.5 (≈ 0.604 µM) | 1 (≈ 1.21 µM) | 2 (≈ 2.42 µM) | – | –
2 | CC(C)(O/N=C(\C(=O)N[C@@H]1C(=O)N2C(C(=O)[O-])=C(/C=C/C[n+]3cnc(N)c(NC(=O)CCN)c3N)CSC12)c1csc(N)n1)C(=O)O (stereo partly drawn) [Compound 66] | – | – | – | – | – | – | – | – | – | – | – | – | – | – | – | – | – | – | – | 16 (≈ 23.2 µM) | MIC90 [2, 34]: > 128 µg/mL; MIC90 [3]; 52: > 128 µg/mL; MIC90 [4, 35]: 2 µg/mL (≈ 2.9 µM); MIC90 [5]: 0.25 µg/mL (≈ 0.362 µM); MIC90 ([6]; AG100): 0.25 µg/mL (≈ 0.362 µM); MIC90 [7]: 0.25 µg/mL (≈ 0.362 µM); MIC90 [8]: 0.5 µg/mL (≈ 0.725 µM); MIC90 [9]: 0.5 µg/mL (≈ 0.725 µM); MIC90 [10]: 16 µg/mL (≈ 23.2 µM); MIC90 [11]: 0.5 µg/mL (≈ 0.725 µM); MIC90 [12]: 1 µg/mL (≈ 1.45 µM); MIC90 [13]: 0.5 µg/mL (≈ 0.725 µM); MIC90 [14]; 2524: < 0.0625 µg/mL; MIC90 [15]: 4 µg/mL (≈ 5.8 µM); MIC90 [16]: 16 µg/mL (≈ 23.2 µM); MIC90 ([17]; Pseudomonas aeruginosa, 40): 8 µg/mL (≈ 11.6 µM); MIC90 [18]; 43: > 128 µg/mL; MIC90 ([19]; 6065Y): 16 µg/mL (≈ 23.2 µM)
3 | CC(C)(O/N=C(\C(=O)N[C@@H]1C(=O)N2C(C(=O)[O-])=C(/C=C/C[n+]3cnc(N)c(NCCN)c3)CSC12)c1nsc(N)n1)C(=O)O (stereo partly drawn) [Compound 55] | – | – | – | – | – | – | – | – | – | – | – | – | – | – | – | – | – | – | – | 0.5 (≈ 0.772 µM) | MIC90 [2, 34]: 64 µg/mL (≈ 98.8 µM); MIC90 [3]; 52: 64 µg/mL (≈ 98.8 µM); MIC90 [4, 35]: 0.125 µg/mL (≈ 0.193 µM); MIC90 [5]: 8 µg/mL (≈ 12.4 µM); MIC90 ([6]; AG100): < 0.0625 µg/mL; MIC90 [7]: < 0.0625 µg/mL; MIC90 [8]: < 0.0625 µg/mL; MIC90 [9]: 0.125 µg/mL (≈ 0.193 µM); MIC90 [10]: 128 µg/mL (≈ 198 µM); MIC90 [11]: 0.25 µg/mL (≈ 0.386 µM); MIC90 [12]: 0.5 µg/mL (≈ 0.772 µM); MIC90 [13]: 2 µg/mL (≈ 3.09 µM); MIC90 [14]; 2524: < 0.0625 µg/mL; MIC90 [15]: 1 µg/mL (≈ 1.54 µM); MIC90 [16]: 4 µg/mL (≈ 6.18 µM); MIC90 ([17]; Pseudomonas aeruginosa, 40): 1 µg/mL (≈ 1.54 µM); MIC90 [18]; 43: > 128 µg/mL; MIC90 ([19]; 6065Y): 8 µg/mL (≈ 12.4 µM)

Second part, led by results:

Row | MIC90 [1, 20] [µg/mL] | MIC90 [2, 21] [µg/mL] | MIC90 [3, 22] [µg/mL] | MIC90 [4, 23] [µg/mL] | MIC90 ([5]; read-out: MIC90) [µg/mL] | MIC90 [6, 24] [µg/mL] | MIC90 ([7]; read-out: MIC90) [µg/mL] | MIC90 [8, 25] [µg/mL] | MIC90 [9, 26] [µg/mL] | MIC90 [10, 27] [µg/mL] | MIC90 [11, 28] [µg/mL] | MIC90 ([12]; read-out: MIC90) [µg/mL] | MIC90 [13, 29] [µg/mL] | MIC90 [14, 30] [µg/mL] | MIC90 ([15]; read-out: MIC90) [µg/mL] | MIC90 ([16]; read-out: MIC90) [µg/mL] | MIC90 [17, 31] [µg/mL] | MIC90 [18, 32] [µg/mL] | MIC90 ([19]; read-out: MIC90) [µg/mL] | SMILES | MIC90 [1, 33] [µg/mL] | further results
4 | 2 (≈ 2.58 µM) | > 128 | 32 (≈ 41.3 µM) | 0.25 (≈ 0.323 µM) | 16 (≈ 20.7 µM) | 1 (≈ 1.29 µM) | 4 (≈ 5.16 µM) | 8 (≈ 10.3 µM) | 2 (≈ 2.58 µM) | > 128 | 32 (≈ 41.3 µM) | 128 (≈ 165 µM) | 128 (≈ 165 µM) | 1 (≈ 1.29 µM) | 1 (≈ 1.29 µM) | 0.5 (≈ 0.645 µM) | 0.25 (≈ 0.323 µM) | 2 (≈ 2.58 µM) | 2 (≈ 2.58 µM) | CC(C)(O/N=C(\C(=O)N[C@@H]1C(=O)N2C(C(=O)[O-])=C(C[n+]3cnc(N)c(NCCNC(=O)c4cc(=O)c(O)cn4O)c3)CSC12)c1nsc(N)n1)C(=O)O (stereo partly drawn) [Compound 16] | – | –
5 | 16 (≈ 19.5 µM) | 32 (≈ 38.9 µM) | 2 (≈ 2.43 µM) | 1 (≈ 1.22 µM) | 8 (≈ 9.73 µM) | 0.25 (≈ 0.304 µM) | 8 (≈ 9.73 µM) | 8 (≈ 9.73 µM) | 0.5 (≈ 0.608 µM) | 16 (≈ 19.5 µM) | 1 (≈ 1.22 µM) | 64 (≈ 77.8 µM) | 2 (≈ 2.43 µM) | 0.5 (≈ 0.608 µM) | 4 (≈ 4.87 µM) | 2 (≈ 2.43 µM) | 4 (≈ 4.87 µM) | 1 (≈ 1.22 µM) | 1 (≈ 1.22 µM) | C[C@H](O/N=C(\C(=O)N[C@@H]1C(=O)N2C(C(=O)[O-])=C(C[n+]3cnc(N)c(NC(=O)CCNC(=O)c4cc(=O)c(O)cn4O)c3)CSC12)c1nc(N)sc1Cl)C(=O)O (stereo partly drawn) [Compound 20] | – | –
6 | 128 (≈ 167 µM) | 16 (≈ 20.9 µM) | 2 (≈ 2.61 µM) | 0.5 (≈ 0.653 µM) | 32 (≈ 41.8 µM) | 2 (≈ 2.61 µM) | 32 (≈ 41.8 µM) | 16 (≈ 20.9 µM) | 1 (≈ 1.31 µM) | 64 (≈ 83.6 µM) | 2 (≈ 2.61 µM) | 128 (≈ 167 µM) | 8 (≈ 10.5 µM) | 0.5 (≈ 0.653 µM) | 2 (≈ 2.61 µM) | 1 (≈ 1.31 µM) | 2 (≈ 2.61 µM) | 0.5 (≈ 0.653 µM) | 2 (≈ 2.61 µM) | CC(C)(O/N=C(\C(=O)N[C@@H]1C(=O)N2C(C(=O)[O-])=C(C[n+]3cnc(N)c(NC(=O)c4cc(=O)c(O)cn4O)c3)CSC12)c1nc(N)sc1Cl)C(=O)O (stereo partly drawn) [Compound 22] | – | –
